Reference: patent US20230391881A1, “COMPOSITIONS AND METHODS FOR OVERCOMING DR5-INDUCED IMMUNE EVASION BY SOLID TUMORS” (University of Virginia Patent Foundation, priority 2020, published 2023)
*1 amine or outer side, *2 acyl side, *3 side chain or, on linkers, in order; H or OH if unused. Where a SMILES comes first, the peptide text is derived from it. Bridges are numbered along the chain shown (N, C = ends). Roman numbers before positions name the chains, in order. [ ]: non-standard residue; d: D form. The star is where a group is joined. Actinocin(9to1) = Cc1c2oc3c(C)ccc(C(=O)[*:1])c3nc-2c(C(=O)[*:2])c(N)c1=O; NMeV = CN[C@H](C(=O)O)C(C)C; Cbz = O=C(OCc1ccccc1)*; Sar = CNCC(=O)O

Columns and labels:
PD-L1 = test: Western blotting / flow cytometry of PD-L1 and regulators in tumor cells; type: cell-based, human; settings: for reversal of PD-L1 stability generated by DR5 agonists: MDA-MB-436 cells pretreated 0-8 hours with inhibitor, then DR5 agonist 6 hours
Experimental: Western Blotting. Cells were cultured overnight in tissue culture-treated 6-well plates prior to treatment. After antibody treatment for 48 hours or another indicated time, cells were rinsed with PBS and then lysed with RIPA buffer supplemented with protease inhibitor cocktail (ThermoFisher Scientific). Centrifugation at 14000 rpm for 30 minutes cleared lysates and protein was quantified by PIERCE™ BCA Protein Assay Kit (ThermoFisher Scientific). Western blotting was performed using the Bio-Rad SDS-PAGE Gel system. Briefly, 30 μg of protein was resolved on 10% Bis-Tris gels and then transferred onto PVDF membrane. Membranes were blocked for one hour at room temperature in TBS+0.1% Tween (TBST) with 5% non-fat dry milk. Membranes were probed overnight at 4° C. with primary antibodies. Membranes were washed three times in TBST and then incubated with anti-rabbit or anti-mouse secondary antibodies (1/10,000 dilution, coupled to peroxidase) for 1 hour at room temperature. Membranes were then washed three times with TBST and immunocomplexes were detected with SUPERSIGNAL™ West Pico Chemiluminescent Substrate (ThermoFisher Scientific). Images were taken using a Bio-Rad Gel Doc Imager system.
(§1) Flow cytometry. The cell surface expression of PD-L1, CD47, huDR5, muDR5, CD8, CD4, CD25 etc. was analyzed by flow cytometry. Overnight grown tumors were trypsinized and suspended in FACS buffer (PBS containing 2% FBS). Single cell suspensions were then incubated with primary DR4/DR5 antibodies for 1 hour at 4° C. with gentle mixing. Following wash with FACS buffer, the cells were then incubated with fluorescently labeled anti-Rabbit antibody for 1 hour. Cells were washed and flow cytometry was performed using a BD FACSCALIBUR™ flow cytometer. The data was analyzed by FCS Express (De Novo Software, Los Angeles, California, United States of America) and FlowJo.

PD-L1-PD-1 interaction = test: PD-1/PD-L1 tumor cell-Jurkat cell co-culture luciferase reporter assay; type: cell-based, human; settings: tumor cells pretreated with ROCK1 inhibitor then DR5 agonist
Experimental: PD-1/PD-L1 reporter assay. […] The original kit contains PD-1 effector Jurkat T cells stably express human PD-1 and NFAT-induced luciferase, while PD-L1 aAPC/CHO-K1 cells stably express human PD-L1 and a cell surface protein designed to activate cognate TCRs in an antigen-independent manner. […] Antibodies blocking PD-1-PD-L1 interaction removes inhibitory signals, resulting in luciferase activation. […] Next day, medium was removed from the culture plate and cells were treated with diluted DR5 agonist antibodies. […] Glo response NFAT-luc2/PD1 Jurkat cells (Promega) were re-suspended in assay buffer and incubated with 1 μg/ml anti-CD3 for 2 hours to activate PD1 Jurkat cells. […] After 6 hours of co-culture, assay plates were removed from the incubator; content of each well were mixed thoroughly with the help of multi-channel pipette and then transferred to a white opaque assay plate. 10 mg/ml luciferase reagent was prepared and loaded into the plate reader, which injects 50 μl reagent in each well and measures luminescence immediately. Data was analyzed using Microsoft Excel software. Wherever indicated, inhibitors (ERK, STAT3, Caspase, ROCK1 etc.) were added 2-3 hrs prior to DR5 agonist antibodies in 96 well culture of tumors as described herein.

4T1 tumors = test: Tumor regression in 4T1 syngeneic TNBC tumor models; type: in vivo, mouse; settings: BALB/c mice, 4T1 tumors; MD5-1 50 μg i.p., GSK269962 2 mg/kg into the tumors (FIG. 4K)
Experimental: FIGS. 4A-4K. DR5 agonist activated ROCK1 functions to help PD-L1 surface mobilization. (FIGS. 4A and 4B) KMTR2 and lexatumumab treated MDA-MB-436 and OVCAR3 (respectively) lysates for indicated early time points were analyzed for caspase-8, caspase-3, ROCK1, pMLC, PARP, PD-L1 and CMTM6 etc. as indicated. Vertical arrows indicate sequential kinetics of caspase-8, ROCK1, and caspase-3 activation, arrows with “n.s.” below them indicate nonspecific band by ROCK1 antibody. (FIG. 4C) OVCAR3 cells were treated with pMLC activating ionophore A23187 (positive control) and lexatumumab ±ROCK1 inhibitors or ±rDR5 or ±rFOLR1. Lysates were later analyzed for ROCK1, pMLC, caspase-3 and PARP with GAPDH as loading control. (FIG. 4D) MDA-MB-436 and OVCAR3 cells were treated with indicated ROCK1 inhibitors 2 hours prior to DR5 agonist KMTR2 treatment. After 4 hours flow cytometry was used to analyze surface PD-L1. […] Relative luciferase signal was quantified and plotted after subtraction of background signal from untreated cells. […] Tumor volumes were quantified at indicated days by caliper measurements. […] Statistical significance in FIG. 4J was determined by unpaired student t-test and in FIG. 4K using two-tailed […] Wilcoxon Mann-Whitney test. […]
FIGS. 6A-6M. […] CD8/CD45 and CD4/CD45 expressing cells were measured by flow cytometry. […] Harvested tumors homogenized followed by quantitation. […]

MDA-MB-436 cells = test: Flow cytometry of surface PD-L1 on tumor cells treated with DR5 agonist antibodies (FIG. 20B); type: cell-based, human
Experimental: FIGS. 20A-20C. (FIG. 20A) 3 biological replicates of total PD-L1 and GAPDH from triple negative breast cancer cell (MDAMB-436) and ovarian cell (OVCAR-3) lysates treated with lexatumumab for 6 hours. (FIG. 20B) Raw mean fluorescent intensity (MFI) and % positive PD-L1 counts from the cells treated with indicated DR5 agonist antibodies. MFI values are shown on the top of solid color bars. There are multiple instances (shown on the top) where despite having lower % positive PD-L1 population, MFI values were higher after indicated DR5 agonist treatments. As an example, in MDA-MB-436 cells treated with tigatuzumab and lexatumumab, lexatumumab treated cells had higher % positive PD-L1 population (9.32 vs 11.97), however MFI was higher in tigatuzumab treated population (107.54 vs 45.87). (FIG. 20C) KMTR2 treated (50 μg, 4 doses) UCD52 TNBC PDX tumors were stained for PD-L1 using immunohistochemistry (IHC). 3 additional representative images are shown. Also see FIG. 1L.
as §1
PD-L1 surface expression analysis of tumor derived cells. The cell surface expression of PD-L1 from tumor-derived cell was analyzed by flow cytometry. Isolated cells were suspended in FACS buffer (PBS containing 1% FBS). The single cell suspension was then incubated with primary PD-L1 antibodies (1:400 dilution) for 1 hour at 4° C. with gentle mixing. […] Following 3 times wash with FACS buffer, the cells were then incubated with fluorescently labeled (alexa 488) anti-Rabbit secondary antibody for 1 hour. Cells were then washed 3-4 times with FACS buffer and flow cytometry was performed using BD FACSCALIBUR™. The data was analyzed by FCS Express (De Novo Software) and FlowJo software.

Molecule | reversal of PD-L1 stability generated by DR5 agonists (PD-L1) | luciferase activity in co-culture reporter assay in presence of ROCK1 inhibitors (PD-L1-PD-1 interaction) | other results
C[C@@H]1C[C@@H]([C@H](O)CC2CC(=O)NC(=O)C2)C(=O)[C@@H](C)C1 [Cycloheximide] | did not also reversed PD-L1 stability |  | 
CC1=C(C(=O)Nc2cc3cn[nH]c3cc2F)C(c2ccc(C(F)(F)F)cc2)CC(=O)N1 (centres unmarked) [GSK429286, N-(6-Fluoro-1H-indazol-5-yl)-6-methyl-2-oxo-4-[4-(trifluoromethyl)phenyl]-3,4-dihydro-1H-pyridine-5-carboxamide] |  | Increased average luciferase intensity | 
CCn1c(-c2nonc2N)nc2cnc(Oc3cccc(NC(=O)c4ccc(OCCN5CCOCC5)cc4)c3)cc21 [GSK269962, N-(3-{[2-(4-Amino-1,2,5-oxadiazol-3-yl)-1-ethyl-1H-imidazo[4,5-c]pyridin-6-yl]oxy}phenyl)-4-[2-(morpholin-4-yl)ethoxy]benzamide] |  | Increased average luciferase intensity | Tumor regression efficacy (tumor volume) (4T1 tumors): ineffective
Cc1c2oc3c(C)ccc(C(=O)N[C@@H]4C(=O)N[C@H](C(C)C)C(=O)N5CCC[C@H]5C(=O)N(C)CC(=O)N(C)[C@@H](C(C)C)C(=O)O[C@@H]4C)c3nc-2c(C(=O)N[C@@H]2C(=O)N[C@H](C(C)C)C(=O)N3CCC[C@H]3C(=O)N(C)CC(=O)N(C)[C@@H](C(C)C)C(=O)O[C@@H]2C)c(N)c1=O [actinomysin-D] (I: T[dV]P[Sar][NMeV] / II: T[dV]P[Sar][NMeV]; ester I:1-I:C, II:1-II:C; linker I:N-II:N via Actinocin(9to1)) | did not also reversed PD-L1 stability |  | 
CC(C)C[C@@H](C=O)NC(=O)[C@H](CC(C)C)NC(=O)[C@H](CC(C)C)NC(=O)OCc1ccccc1 [MG132] (Cbz-Leu-Leu-Leu-aldehyde) |  |  | PD-L1 stability with proteasome inhibition (MG132) (PD-L1; cell surface or total lysates): increased overall PD-L1
tigatuzumab: Monospecific Antibody, Human DR5 activator; VL and VH SEQ ID NOs: 3 and 4 |  |  | PD-L1 mean fluorescent intensity (MFI) (MDA-MB-436 cells; MDA-MB-436 cells treated with DR5 agonist antibody (FIG. 20B)): 107.54; % positive PD-L1 population (MDA-MB-436 cells; MDA-MB-436 cells treated with DR5 agonist antibody, raw flow cytometry counts (FIG. 20B)): 9.32%
